These results are taken from ChEMBL document CHEMBL2424576, “Chiral N-benzyl-N-methyl-1-(naphthalen-1-yl)ethanamines and their in vitro antifungal activity against Cryptococcus neoformans, Trichophyton mentagrophytes and Trichophyton rubrum” (2013).

What all share (type): functional
For assay [1], the system named is Cryptococcus neoformans. Nature of the assay: Antifungal activity against Cryptococcus neoformans after 72 hrs by broth microdilution method. A general note: In broth dilution the organism is exposed to a series of concentrations in liquid medium.
Assay [2] relates to Trichophyton mentagrophytes. The assay can be described thus: Antifungal activity against Trichophyton mentagrophytes after 7 days by broth microdilution method. The following applies: 168 h.
Assay [3] relates to Trichophyton rubrum. The assay can be described thus: Antifungal activity against Trichophyton rubrum after 7 days by broth microdilution method. Particulars: 168 h.
Assay [4] deals with Trichophyton mentagrophytes. Nature of the assay: Antifungal activity against Trichophyton mentagrophytes assessed as fungal growth at 0.25 ug/ml after 7 days by broth microdilution method.
Assay [5] concerns Cryptococcus neoformans. Nature of the assay: Antifungal activity against Cryptococcus neoformans assessed as fungal growth at 0.125 ug/ml after 72 hrs by broth microdilution method.
Assay [6] relates to Trichophyton rubrum. The assay can be described thus: Antifungal activity against Trichophyton rubrum assessed as fungal growth at 0.25 ug/ml after 7 days by broth microdilution method.

Converted amounts (≈) assume the structure as drawn.

Consider `C[C@H](c1cccc2ccccc12)N(C)Cc1ccc(F)cc1`, for which, in assay [1], the MIC50 (as a rule, an inhibitory concentration at the 50% level, which refers to growth in some studies and to a panel of isolates in others) came to 4 µg/mL (≈ 13.6 µM); the MIC80 (usually an inhibitory concentration at the 80% level, which refers to growth in some studies and to a panel of isolates in others) was 8 µg/mL (≈ 27.3 µM).

In assay [1], `C[C@@H](c1cccc2ccccc12)N(C)Cc1ccc(C(C)(C)C)cc1` came in with an MIC50 of 1 µg/mL (≈ 3.02 µM) and an MIC80 of 2 µg/mL (≈ 6.03 µM).

Regarding `C[C@H](c1ccc(C(C)(C)C)cc1)N(C)Cc1cccc2ccccc12`, the MIC50 in assay [1], in assay [2] and in assay [3] was over 32 µg/mL each time. Also, the MIC80 in assay [1], in assay [2] and in assay [3] was over 32 µg/mL throughout.

In assay [1], `C[C@H](c1cccc2ccccc12)N(C)Cc1ccccn1` showed an MIC50 of over 32 µg/mL and an MIC80 of over 32 µg/mL.

Consider `C[C@H](c1cccc2ccccc12)N(C)Cc1ccc(OC(F)(F)F)cc1`, for which the MIC50 in assay [1] worked out at 2 µg/mL (≈ 5.56 µM); in assay [3], 0.5 µg/mL (≈ 1.39 µM). The MIC80 is 4 µg/mL (≈ 11.1 µM) in assay [1], 0.5 µg/mL (≈ 1.39 µM) in assay [2] and 1 µg/mL (≈ 2.78 µM) in assay [3]. Also, the Activity in assay [4] is over 50%.

On to `C[C@H](c1cccc2ccccc12)N(C)Cc1ccc([N+](=O)[O-])cc1`, for which the figures for the MIC50 in assay [1], in assay [2] and in assay [3] were 2 µg/mL (≈ 6.24 µM), 1 µg/mL (≈ 3.12 µM) and 0.25 µg/mL (≈ 0.78 µM), respectively. Moreover, the MIC80 in assay [1] is over 16 µg/mL; in assay [2], 2 µg/mL (≈ 6.24 µM); in assay [3] it was 0.5 µg/mL (≈ 1.56 µM).

For `C[C@H](c1cccc2ccccc12)N(C)Cc1cc(C(F)(F)F)cc(C(F)(F)F)c1`, in assay [1], the MIC50 is over 32 µg/mL and the MIC80 is over 32 µg/mL.

Take `C[C@H](c1cccc2ccccc12)N(C)Cc1ccc(C(C)(C)C)cc1`: the MIC80 in assay [1] stood at 0.25 µg/mL (≈ 0.754 µM); in assay [2] it was 0.125 µg/mL (≈ 0.377 µM); in assay [3] it was 0.125 µg/mL (≈ 0.377 µM). In assay [5], the Activity is reported as over 50%. Also, the MIC50 in assay [2] and in assay [3] was 0.06 µg/mL (≈ 0.181 µM) in each case.

For `C[C@H](c1cccc2ccccc12)N(C)Cc1ccccc1Br`, in assay [1], the MIC50 is over 32 µg/mL and the MIC80 is over 32 µg/mL.

Consider `C[C@H](c1cccc2ccccc12)N(C)Cc1ccc(C(F)(F)F)cc1`, for which the figures for the MIC50 in assay [1], in assay [2] and in assay [3] were 0.5 µg/mL (≈ 1.46 µM), 0.25 µg/mL (≈ 0.728 µM) and 0.25 µg/mL (≈ 0.728 µM), respectively. For the same molecule, the results for the MIC80 in assay [1], in assay [2] and in assay [3] were 1 µg/mL (≈ 2.91 µM), 0.5 µg/mL (≈ 1.46 µM) and 0.5 µg/mL (≈ 1.46 µM), respectively.

In assay [1], `C[C@H](c1cccc2ccccc12)N(C)Cc1ccccc1F` had an MIC50 of over 32 µg/mL and an MIC80 of over 32 µg/mL.

With `CC(C)(C)c1ccc([C@@H](CF)NCc2cccc3ccccc23)cc1`, the MIC50 in assay [1], in assay [2] and in assay [3] was over 32 µg/mL throughout. For the same molecule, the MIC80 in assay [1], in assay [2] and in assay [3] was over 32 µg/mL throughout.

As to `C[C@@H]1[C@H](O)[C@@H](C)/C=C/C=C/C=C/C=C/C=C/C=C/C=C/[C@H](O[C@@H]2O[C@H](C)[C@@H](O)[C@H](N)[C@@H]2O)C[C@@H]2O[C@](O)(C[C@@H](O)C[C@@H](O)[C@H](O)CC[C@@H](O)C[C@@H](O)CC(=O)O[C@H]1C)C[C@H](O)[C@H]2C(=O)O` [AMPHOTERICIN B], the MIC50 is 0.25 µg/mL (≈ 0.271 µM) in assay [1], 0.5 µg/mL (≈ 0.541 µM) in assay [2] and over 0.25 µg/mL in assay [3]. Further, the MIC80 in assay [1] was under 0.5 µg/mL; in assay [2], under 1 µg/mL; in assay [3], under 0.5 µg/mL.

Take `C[C@H](c1cccc2ccccc12)N(C)Cc1cc(C(C)(C)C)cc(C(C)(C)C)c1`: in assay [1], the MIC50 is 32 µg/mL (≈ 82.6 µM) and the MIC80 is over 32 µg/mL.

In the case of `C[C@H](c1cccc2ccccc12)N(C)Cc1cccc(C(F)(F)F)c1`, the MIC50 in assay [1] was 4 µg/mL (≈ 11.6 µM); in assay [2], 4 µg/mL (≈ 11.6 µM); in assay [3], 2 µg/mL (≈ 5.82 µM). Moreover, the MIC80 in assay [1] is 8 µg/mL (≈ 23.3 µM); in assay [2], over 32 µg/mL; in assay [3] it was 4 µg/mL (≈ 11.6 µM).

With `CC(C)(C)c1ccc([C@H](CF)NCc2cccc3ccccc23)cc1`, the MIC50 was over 32 µg/mL in assay [1], 2 µg/mL (≈ 5.96 µM) in assay [2] and 2 µg/mL (≈ 5.96 µM) in assay [3]. Also, the results for the MIC80 in assay [1], in assay [2] and in assay [3] were over 32 µg/mL, 4 µg/mL (≈ 11.9 µM) and 4 µg/mL (≈ 11.9 µM), respectively.

In assay [1], `C[C@H](c1cccc2ccccc12)N(C)Cc1ccccc1C(F)(F)F` registered an MIC50 of over 32 µg/mL and an MIC80 of over 32 µg/mL.

As for `Cc1ccc(CN(C)[C@H](C)c2cccc3ccccc23)cc1`, the MIC50 came out at 0.5 µg/mL (≈ 1.73 µM) in assay [1], 0.25 µg/mL (≈ 0.864 µM) in assay [2] and 0.25 µg/mL (≈ 0.864 µM) in assay [3]. Besides, the MIC80 in assay [1] worked out at 1 µg/mL (≈ 3.46 µM); in assay [2] it was 0.5 µg/mL (≈ 1.73 µM); in assay [3], 0.5 µg/mL (≈ 1.73 µM).

For `C[C@H](c1cccc2ccccc12)N(C)Cc1ccc(OCc2ccccc2)cc1`, the MIC50 in assay [1] is 0.5 µg/mL (≈ 1.31 µM); in assay [2] it was 0.125 µg/mL (≈ 0.328 µM); in assay [3], 0.125 µg/mL (≈ 0.328 µM). The MIC80 in assay [1] came to 1 µg/mL (≈ 2.62 µM); in assay [2], 0.25 µg/mL (≈ 0.655 µM); in assay [3], 0.25 µg/mL (≈ 0.655 µM).

Turning to `C[C@H](c1cccc2ccccc12)N(C)Cc1cccc(Br)c1`, the MIC50 in assay [1] stood at 4 µg/mL (≈ 11.3 µM); in assay [2], 2 µg/mL (≈ 5.65 µM); in assay [3], 1 µg/mL (≈ 2.82 µM). In addition, the figures for the MIC80 in assay [1], in assay [2] and in assay [3] were 8 µg/mL (≈ 22.6 µM), 4 µg/mL (≈ 11.3 µM) and 2 µg/mL (≈ 5.65 µM), respectively.

With `CN(Cc1cccc2ccccc12)[C@@H](CF)c1ccc(C(C)(C)C)cc1`, the MIC50 in assay [1], in assay [2] and in assay [3] was over 32 µg/mL throughout. The MIC80 in assay [1], in assay [2] and in assay [3] was over 32 µg/mL each time.

As for `C[C@H](c1cccc2ccccc12)N(C)Cc1ccc(Br)cc1`, the MIC50 in assay [1] amounted to 0.5 µg/mL (≈ 1.41 µM); in assay [2], 0.25 µg/mL (≈ 0.706 µM); in assay [3], 0.125 µg/mL (≈ 0.353 µM). The MIC80 in assay [1] is 1 µg/mL (≈ 2.82 µM); in assay [2], 0.5 µg/mL (≈ 1.41 µM); in assay [3], 0.25 µg/mL (≈ 0.706 µM).

For the molecule `C[C@H](c1cccc2ccccc12)N(C)Cc1cccnc1`, in assay [1], the MIC50 was over 32 µg/mL and the MIC80 is over 32 µg/mL.

On to `CN(Cc1ccc(C(C)(C)C)cc1)Cc1cccc2ccccc12` [BUTENAFINE], for which the results for the MIC50 in assay [1], in assay [2] and in assay [3] were 0.5 µg/mL (≈ 1.57 µM), 0.06 µg/mL (≈ 0.189 µM) and 0.03 µg/mL (≈ 0.0945 µM), respectively. For the same molecule, the MIC80 in assay [1] amounted to 1 µg/mL (≈ 3.15 µM); in assay [2], 0.125 µg/mL (≈ 0.394 µM); in assay [3] it was 0.06 µg/mL (≈ 0.189 µM).

Regarding `COc1ccc(CN(C)[C@H](C)c2cccc3ccccc23)cc1`, the values for the MIC50 in assay [1], in assay [2] and in assay [3] were 2 µg/mL (≈ 6.55 µM), 1 µg/mL (≈ 3.27 µM) and 1 µg/mL (≈ 3.27 µM), respectively. The MIC80 in assay [1] turned out to be 4 µg/mL (≈ 13.1 µM); in assay [2] it was 2 µg/mL (≈ 6.55 µM); in assay [3], 2 µg/mL (≈ 6.55 µM).

In assay [1], `C[C@H](c1cccc2ccccc12)N(C)Cc1ccc(-c2ccccc2)cc1` had an MIC50 of over 16 µg/mL and an MIC80 of over 32 µg/mL.

In assay [1], `C[C@H](c1cccc2ccccc12)N(C)Cc1ccccc1` yielded an MIC50 of 16 µg/mL (≈ 58.1 µM) and an MIC80 of over 16 µg/mL.

In turn, `C[C@H](c1cccc2ccccc12)N(C)Cc1ccc([Si](C)(C)C)cc1` showed an MIC50 in assay [1] of 0.5 µg/mL (≈ 1.44 µM). The MIC80 was determined as 1 µg/mL (≈ 2.88 µM) in assay [1], 0.5 µg/mL (≈ 1.44 µM) in assay [2] and 0.5 µg/mL (≈ 1.44 µM) in assay [3]. Further, the Activity in assay [4] and in assay [6] was over 50% each time.

As to `C[C@@H](c1ccc(C(C)(C)C)cc1)N(C)Cc1cccc2ccccc12`, the MIC50 in assay [1] came out at 2 µg/mL (≈ 6.03 µM); in assay [2] it was 0.5 µg/mL (≈ 1.51 µM); in assay [3], 0.5 µg/mL (≈ 1.51 µM). Besides, the MIC80 was 4 µg/mL (≈ 12.1 µM) in assay [1], 1 µg/mL (≈ 3.02 µM) in assay [2] and 1 µg/mL (≈ 3.02 µM) in assay [3].

As to `CN(Cc1cccc2ccccc12)[C@H](CF)c1ccc(C(C)(C)C)cc1`, the MIC50 in assay [1], in assay [2] and in assay [3] was over 32 µg/mL each time. Moreover, the MIC80 in assay [1], in assay [2] and in assay [3] was over 32 µg/mL throughout.

In assay [1], `C[C@H](c1cccc2ccccc12)N(C)Cc1ccncc1` returned an MIC50 of 16 µg/mL (≈ 57.9 µM) and an MIC80 of over 32 µg/mL.

On to `Cc1cc(C(C)(C)C)cc(C)c1CN(C)[C@H](C)c1cccc2ccccc12`, for which the MIC50 in assay [1] was 1 µg/mL (≈ 2.78 µM); in assay [2], over 32 µg/mL; in assay [3], over 32 µg/mL. Also, the MIC80 is 32 µg/mL (≈ 89 µM) in assay [1], over 32 µg/mL in assay [2] and over 32 µg/mL in assay [3].

In assay [1], `C[C@H](c1cccc2ccccc12)N(C)Cc1ccccc1-c1ccccc1` yielded an MIC50 of over 32 µg/mL and an MIC80 of over 32 µg/mL.
